Source: US20130022612A1, “METHODS AND COMPOSITIONS FOR MALARIA PROPHYLAXIS” (priority 2004, published 2013)

Test system: P. berghei sporozoites
Settings: in the presence of E-64
Experimental: Hepa 1-6 cells were plated in 96-well tissue culture-treated plates, allowed to grow until semi-confluent, washed with DMEM without phenol red, loaded with 10 μM calcein green AM for 1 hour at 37° C. and washed 3 times. 5×10^5 sporozoites in culture medium were centrifuged onto the calcein-loaded cells, incubated for 1 hour at 37° C. and supernatants containing the released calcein were transferred to a ThermoElectron Microfluor 96-well plate. Fluorescence was read in a Labsystems Fluoroscan II using excitation and emission wavelengths of 485 nm and 538 nm, respectively. Further details are outlined in (Coppi et al., 2007).

CC(C)C[C@H](NC(=O)[C@H]1O[C@@H]1C(=O)O)C(=O)NCCCCN=C(N)N (relative stereo) [E-64, L-trans-epoxysuccinyl-leucylamide-[4-guanido]-butane]
increase in migratory activity: 4 to 5 fold
